Results: paper PMC3214651 (Antiviral research, 2009)

Tests used:
[1] = molecular target: WNV NTPase (NS3) (West Nile virus, UniProt Q9Q6P4); test: NTPase assay; type: biochemical; conditions: 1 µM, control compound
[2] = molecular target: WNV protease (NS2b-NS3) (West Nile virus, UniProt Q9Q6P4); test: Protease assay; conditions: 25 µM, control compound
[3] = tested on: WNV; conditions: ref Zou et al., 2008; cited from earlier work

Nc1nc2c(ncn2[C@@H]2O[C@H](COP(=O)(O)OP(=O)(O)OP(=O)(O)O)[C@@H](O)[C@H]2O)c(=O)[nH]1 [nonradioactive GTP, GTP]
suppression of NTPase activity [1]: > 85%

aprotinin
suppression of protease activity [2]: > 85%

O[C@H]1[C@H]2c3cc4c(cc3CN3CCC(=C[C@@H]1O)[C@H]23)OCO4 [lycorine]
EC50 [3]: 230 nM | TI [3]: 104
